The results in this text go back to ChEMBL document CHEMBL2157879, “Improving the affinity of naphthalene diimide ligand to telomeric DNA by incorporating Zn²⁺ ions into its dipicolylamine groups” (Bioorg Med Chem, 2012).

The target in assay [1] is Telomerase reverse transcriptase (Homo sapiens, UniProt O14746). Put plainly: Inhibition of telomerase-mediated primer elongation by gel electrophoresis-based TRAP assay.
Assay [2] has as its system Nucleic Acid. Put plainly: Binding affinity to TAGGG(TTAGGG)3 G-quadruplex in Tris-HCl buffer assessed as change in melting temperature at 3 uM by CD titration method in presence of 100 mM KCl. The class given is nucleic-acid assay.
Assay [3] relates to Nucleic Acid. Put plainly: Binding affinity to biotin-labeled AGGG(TTAGGG)3 at 1 to 960 nM by SPR analysis in presence of […]. The class given is nucleic-acid assay.
The test system of assay [4] is Nucleic Acid. Put plainly: Stabilization of TAGGG(TTAGGG)3 G-quadruplex in Tris-HCl buffer at DNA/ligand molar ratio 1 to 4 by CD titration method 100 mM KCl. The assay is classed as nucleic-acid assay.
The test system of assay [5] is Nucleic Acid. The assay is described as follows: Binding affinity to AGGG(TTAGGG)3 G-quadruplex in Tris-HCl buffer assessed as change in melting temperature at 3 uM by CD titration method in presence of 100 mM NaCl. The class given is nucleic-acid assay.
For assay [6], the system named is Nucleic Acid. Put plainly: Binding affinity to AGGG(TTAGGG)3 G-quadruplex in Tris-HCl buffer assessed as change in melting temperature at 3 uM by CD titration method in presence of 100 mM KCl. The class given is nucleic-acid assay.
Assay [7] relates to Nucleic Acid. The assay is described as follows: Binding affinity to ds AGGG(TTAGGG)3 in Tris-HCl buffer after 2 hrs by UV-vis spectrophotometric titration method in presence of 100 mM KCl. The class given is nucleic-acid assay.
Assay [8] has as its system Nucleic Acid. Put plainly: Binding affinity to biotin-labeled TAGGG(TTAGGG)3 at 1 to 960 nM by SPR analysis in presence of 0.15 mM NaCl. The class given is nucleic-acid assay. In general terms: In SPR one partner is held on a chip, and binding of the other changes the refractive index at the surface.
Assay [9] concerns Nucleic Acid. The assay is described as follows: Binding affinity to TAGGG(TTAGGG)3 G-quadruplex in Tris-HCl buffer by spectrophotometric titration method in presence of 100 mM KCl. The class given is nucleic-acid assay.
The subject of assay [10] is Nucleic Acid. Put plainly: Binding affinity to AGGG(TTAGGG)3 G-quadruplex in Tris-HCl buffer by spectrophotometric titration method in presence of 100 mM KCl. The class given is nucleic-acid assay.
The subject of assay [11] is Nucleic Acid. Put plainly: Binding affinity to AGGG(TTAGGG)3 G-quadruplex in Tris-HCl buffer by UV-vis spectrophotometric titration method in presence of 100 mM KCl. The class given is nucleic-acid assay.
Assay [12] has as its system Nucleic Acid. Put plainly: Binding affinity to ds AGGG(TTAGGG)3 in Tris-HCl buffer assessed as melting temperature at DNA/compound molar ratio 1:2 by CD titration method in presence of 100 mM KCl (reference value: 58 degC). The class given is nucleic-acid assay.
The test system of assay [13] is Nucleic Acid. The assay is described as follows: Binding affinity to biotin-labeled TAGGG(TTAGGG)3 at 1 to 960 nM by SPR analysis in presence of […]. The assay is classed as nucleic-acid assay.
For assay [14], the system named is Nucleic Acid. Put plainly: Stabilization of AGGG(TTAGGG)3 G-quadruplex in Tris-HCl buffer at DNA/ligand molar ratio 1 to 4 by CD titration method in presence of 100 mM KCl. The class given is nucleic-acid assay.
The test system of assay [15] is Nucleic Acid. Put plainly: Binding affinity to TAGGG(TTAGGG)3 G-quadruplex in Tris-HCl buffer assessed as change in melting temperature at 3 uM by CD titration method in presence of 100 mM NaCl. The assay is classed as nucleic-acid assay.
In assay [16] the test system is Nucleic Acid. Put plainly: Binding affinity to biotin-labeled AGGG(TTAGGG)3 at 1 to 960 nM by SPR analysis in presence of 0.15 mM NaCl. The assay is classed as nucleic-acid assay.
Assay [17] has as its system Nucleic Acid. Put plainly: Binding affinity to TAGGG(TTAGGG)3 G-quadruplex in Tris-HCl buffer by UV-vis spectrophotometric titration method in presence of 100 mM KCl. The assay is classed as nucleic-acid assay.

pEC50: −log10 of the molar value. Calls of active or inactive are those of the source. The calls are words filed in the database; no cut-off is given here.

Telomerase reverse transcriptase, sequence (O14746 whole entry): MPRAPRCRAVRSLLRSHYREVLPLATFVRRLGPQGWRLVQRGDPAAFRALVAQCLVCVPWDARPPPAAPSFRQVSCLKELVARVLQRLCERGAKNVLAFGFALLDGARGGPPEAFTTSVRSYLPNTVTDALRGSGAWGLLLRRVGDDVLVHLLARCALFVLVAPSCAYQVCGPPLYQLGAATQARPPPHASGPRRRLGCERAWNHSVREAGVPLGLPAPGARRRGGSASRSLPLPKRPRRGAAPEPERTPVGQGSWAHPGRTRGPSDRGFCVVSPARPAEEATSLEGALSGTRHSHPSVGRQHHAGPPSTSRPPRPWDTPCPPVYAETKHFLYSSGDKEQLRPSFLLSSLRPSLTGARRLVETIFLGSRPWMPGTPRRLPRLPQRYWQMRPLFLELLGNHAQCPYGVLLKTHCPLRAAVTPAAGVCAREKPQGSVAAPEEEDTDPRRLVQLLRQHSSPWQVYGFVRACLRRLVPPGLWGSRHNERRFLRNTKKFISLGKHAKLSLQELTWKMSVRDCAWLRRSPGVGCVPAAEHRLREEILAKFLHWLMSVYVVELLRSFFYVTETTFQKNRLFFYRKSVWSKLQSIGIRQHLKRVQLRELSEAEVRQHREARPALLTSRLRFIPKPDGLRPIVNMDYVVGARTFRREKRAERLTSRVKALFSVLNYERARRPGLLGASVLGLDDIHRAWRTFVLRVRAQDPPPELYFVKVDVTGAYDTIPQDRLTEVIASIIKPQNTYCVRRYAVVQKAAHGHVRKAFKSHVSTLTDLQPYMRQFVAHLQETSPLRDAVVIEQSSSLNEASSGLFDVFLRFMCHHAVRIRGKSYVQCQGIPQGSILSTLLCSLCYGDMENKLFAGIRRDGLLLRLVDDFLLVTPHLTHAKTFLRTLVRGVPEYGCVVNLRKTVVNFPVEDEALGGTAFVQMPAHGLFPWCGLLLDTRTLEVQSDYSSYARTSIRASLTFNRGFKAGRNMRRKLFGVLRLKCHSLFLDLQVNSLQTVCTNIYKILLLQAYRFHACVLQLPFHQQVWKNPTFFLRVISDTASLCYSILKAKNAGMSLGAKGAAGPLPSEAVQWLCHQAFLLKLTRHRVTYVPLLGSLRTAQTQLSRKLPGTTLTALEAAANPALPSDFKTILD

Turning to `CN(CCCN(Cc1ccccn1)Cc1ccccn1)CCCN1C(=O)c2ccc3c4c(ccc(c24)C1=O)C(=O)N(CCCN(C)CCCN(Cc1ccccn1)Cc1ccccn1)C3=O`, in [1], the pEC50 (usually the EC50 on a negative log10 scale, so that one unit is a factor of ten) was 5.40. Moreover, the ΔTm (as a rule, the change in melting temperature against a reference sample) turned out to be 13 °C in the assay with Nucleic Acid [2], 1 °C in the assay with Nucleic Acid [5], 12 °C with Nucleic Acid [6] and 1 °C with Nucleic Acid [15]. Also, the outcome with Nucleic Acid [3], in the assay on Nucleic Acid [4], in the assay on Nucleic Acid [13] and in the assay with Nucleic Acid [14] was Active. For the same molecule, the values for the K in the assay with Nucleic Acid [7], in the assay with Nucleic Acid [9] and with Nucleic Acid [10] were 0.9 µM, 2.8 µM and 1.1 µM, respectively. Also, the result in the assay on Nucleic Acid [8], in the assay with Nucleic Acid [11], in the assay on Nucleic Acid [16] and in the assay on Nucleic Acid [17] was inactive. For the same molecule, the Tm in the assay on Nucleic Acid [12] worked out at 66 °C.
